Laboratory results published in ChEMBL document CHEMBL4138123, “Design, synthesis and biological evaluation of novel pyrazolochalcones as potential modulators of PI3K/Akt/mTOR pathway and inducers of apoptosis in breast cancer cells” (Eur J Med Chem, 2017).

Legend:
Format in all cases: functional
[1] = test system: NCI-H23; assay: Cytotoxicity against human NCI-H23 cells assessed as cell growth at 0.01 uM after 48 hrs by sulforhodamine B assay relative to control; settings: NCI-H23, 48 h, read-out: Activity
[2] = test system: HL-60(TB); assay: Cytotoxicity against human HL-60(TB) cells assessed as cell growth at 1 uM after 48 hrs by sulforhodamine B assay relative to control; settings: HL-60, 48 h, read-out: Activity
[3] = test system: KM12; assay: Cytotoxicity against human KM12 cells assessed as cell growth at 100 uM after 48 hrs by sulforhodamine B assay relative to control; settings: KM12, 48 h, read-out: Activity
[4] = test system: SF-539; assay: Cytotoxicity against human SF539 cells assessed as cell growth at 1 uM after 48 hrs by sulforhodamine B assay relative to control; settings: SF-539, 48 h, read-out: Activity
[5] = test system: NCI-H460; assay: Cytotoxicity against human NCI-H460 cells assessed as cell growth at 100 uM after 48 hrs by sulforhodamine B assay relative to control; settings: NCI-H460, 48 h, read-out: Activity
[6] = test system: MOLT-4; assay: Cytotoxicity against human MOLT4 cells assessed as growth inhibition after 48 hrs by sulforhodamine B assay; settings: MOLT-4, 48 h; for CC50: read-out: LC50 (the source's name)
[7] = test system: NCI-H226; assay: Cytotoxicity against human NCI-H226 cells assessed as cell growth at 0.01 uM after 48 hrs by sulforhodamine B assay relative to control; settings: NCI-H226, 48 h, read-out: Activity
[8] = test system: NCI-H226; assay: Cytotoxicity against human NCI-H226 cells assessed as cell growth at 100 uM after 48 hrs by sulforhodamine B assay relative to control; settings: NCI-H226, 48 h, read-out: Activity
[9] = test system: HOP-62; assay: Cytotoxicity against human HOP62 cells assessed as growth inhibition after 48 hrs by sulforhodamine B assay; settings: HOP-62, 48 h
[10] = test system: U-251; assay: Cytotoxicity against human U251 cells assessed as cell growth at 100 uM after 48 hrs by sulforhodamine B assay relative to control; settings: U-251, 48 h, read-out: Activity
[11] = test system: SK-MEL-5; assay: Cytotoxicity against human SK-MEL-5 cells assessed as cell growth at 1 uM after 48 hrs by sulforhodamine B assay relative to control; settings: SK-MEL-5, 48 h, read-out: Activity
[12] = test system: OVCAR-8; assay: Cytotoxicity against human OVCAR8 cells assessed as cell growth at 100 uM after 48 hrs by sulforhodamine B assay relative to control; settings: OVCAR-8, 48 h, read-out: Activity
[13] = test system: M14; assay: Cytotoxicity against human M14 cells assessed as growth inhibition after 48 hrs by sulforhodamine B assay; settings: M14, 48 h
[14] = test system: SK-OV-3; assay: Cytotoxicity against human SKOV3 cells assessed as cell growth at 0.1 uM after 48 hrs by sulforhodamine B assay relative to control; settings: SK-OV-3, 48 h, read-out: Activity
[15] = test system: M14; assay: Cytotoxicity against human M14 cells assessed as cell growth at 0.01 uM after 48 hrs by sulforhodamine B assay relative to control; settings: M14, 48 h, read-out: Activity
[16] = test system: OVCAR-4; assay: Cytotoxicity against human OVCAR4 cells assessed as cell growth at 10 uM after 48 hrs by sulforhodamine B assay relative to control; settings: OVCAR-4, 48 h, read-out: Activity
[17] = test system: OVCAR-4; assay: Cytotoxicity against human OVCAR4 cells assessed as cell growth at 0.1 uM after 48 hrs by sulforhodamine B assay relative to control; settings: OVCAR-4, 48 h, read-out: Activity
[18] = test system: A498; assay: Cytotoxicity against human A498 cells assessed as cell growth at 100 uM after 48 hrs by sulforhodamine B assay relative to control; settings: A498, 48 h, read-out: Activity
[19] = test system: 786-0; assay: Cytotoxicity against human 786-0 cells assessed as growth inhibition after 48 hrs by sulforhodamine B assay; settings: 786-0, 48 h
[20] = test system: SK-MEL-5; assay: Cytotoxicity against human SK-MEL-5 cells assessed as cell growth at 100 uM after 48 hrs by sulforhodamine B assay relative to control; settings: SK-MEL-5, 48 h, read-out: Activity
[21] = test system: M14; assay: Cytotoxicity against human M14 cells assessed as cell growth at 0.1 uM after 48 hrs by sulforhodamine B assay relative to control; settings: M14, 48 h, read-out: Activity
[22] = test system: SW-620; assay: Cytotoxicity against human SW620 cells assessed as cell growth at 0.01 uM after 48 hrs by sulforhodamine B assay relative to control; settings: SW-620, 48 h, read-out: Activity
[23] = test system: OVCAR-3; assay: Cytotoxicity against human OVCAR3 cells assessed as cell growth at 1 uM after 48 hrs by sulforhodamine B assay relative to control; settings: OVCAR-3, 48 h, read-out: Activity
[24] = test system: HCT-15; assay: Cytotoxicity against human HCT15 cells assessed as cell growth at 10 uM after 48 hrs by sulforhodamine B assay relative to control; settings: HCT-15, 48 h, read-out: Activity
[25] = test system: OVCAR-8; assay: Cytotoxicity against human OVCAR8 cells assessed as cell growth at 0.1 uM after 48 hrs by sulforhodamine B assay relative to control; settings: OVCAR-8, 48 h, read-out: Activity
[26] = test system: A549; assay: Cytotoxicity against human A549/ATCC cells assessed as cell growth at 100 uM after 48 hrs by sulforhodamine B assay relative to control; settings: A549, 48 h, read-out: Activity
[27] = test system: NCI-H460; assay: Cytotoxicity against human NCI-H460 cells assessed as growth inhibition after 48 hrs by sulforhodamine B assay; settings: NCI-H460, 48 h
[28] = test system: M14; assay: Cytotoxicity against human M14 cells assessed as cell growth at 10 uM after 48 hrs by sulforhodamine B assay relative to control; settings: M14, 48 h, read-out: Activity
[29] = test system: Hs-578T; assay: Cytotoxicity against human Hs 578T cells assessed as cell growth at 100 uM after 48 hrs by sulforhodamine B assay relative to control; settings: read-out: Activity
[30] = test system: U-251; assay: Cytotoxicity against human U251 cells assessed as cell growth at 0.1 uM after 48 hrs by sulforhodamine B assay relative to control; settings: U-251, 48 h, read-out: Activity
[31] = test system: SF-539; assay: Cytotoxicity against human SF539 cells assessed as cell growth at 0.1 uM after 48 hrs by sulforhodamine B assay relative to control; settings: SF-539, 48 h, read-out: Activity
[32] = test system: NCI-H460; assay: Cytotoxicity against human NCI-H460 cells assessed as cell growth at 1 uM after 48 hrs by sulforhodamine B assay relative to control; settings: NCI-H460, 48 h, read-out: Activity
[33] = test system: NCI/ADR-RES; assay: Cytotoxicity against human NCI/ADR-RES cells assessed as cell growth at 0.1 uM after 48 hrs by sulforhodamine B assay relative to control; settings: read-out: Activity
[34] = test system: MOLT-4; assay: Cytotoxicity against human MOLT4 cells assessed as cell growth at 10 uM after 48 hrs by sulforhodamine B assay relative to control; settings: MOLT-4, 48 h, read-out: Activity
[35] = test system: NCI/ADR-RES; assay: Cytotoxicity against human NCI/ADR-RES cells assessed as growth inhibition after 48 hrs by sulforhodamine B assay
[36] = test system: NCI/ADR-RES; assay: Cytotoxicity against human NCI/ADR-RES cells assessed as cell growth at 1 uM after 48 hrs by sulforhodamine B assay relative to control; settings: read-out: Activity

## COc1ccc(C(=O)/C=C/c2cc(-c3ccc4c(c3)OCO4)n[nH]2)cc1OC
[1]
  growth at 0.01 µM: 90%
[2]
  growth at 1 µM: 89%
[3]
  growth at 100 µM: -90%
[4]
  growth at 1 µM: 88%
[5]
  growth at 100 µM: -81%
[6]
  TGI: 10.3 µM
  CC50: > 100 µM
[7]
  growth at 0.01 µM: 90%
[8]
  growth at 100 µM: -20%
[9]
  LC50: 25.8 µM
  TGI: 5.6 µM
[10]
  growth at 100 µM: -91%
[11]
  growth at 1 µM: 95%
[12]
  growth at 100 µM: -65%
[13]
  LC50 (concentration killing 50% of cells): 58.4 µM
  TGI: 21.4 µM
[14]
  growth at 0.1 µM: 99%
[15]
  growth at 0.01 µM: 98%
[16]
  growth at 10 µM: 18%
[17]
  growth at 0.1 µM: 94%
[18]
  growth at 100 µM: -93%
[19]
  LC50: 42.3 µM
  TGI: 11.4 µM
[20]
  growth at 100 µM: -95%
[21]
  growth at 0.1 µM: 98%
[22]
  growth at 0.01 µM: 100%
[23]
  growth at 1 µM: 92%
[24]
  growth at 10 µM: 6%
[25]
  growth at 0.1 µM: 98%
[26]
  growth at 100 µM: -14%
[27]
  LC50: 9.07 µM
  TGI: 4.05 µM
[28]
  growth at 10 µM: 38%
[29]
  growth at 100 µM: -5%
[30]
  growth at 0.1 µM: 91%
[31]
  growth at 0.1 µM: 95%
[32]
  growth at 1 µM: 87%

## COc1ccc(-c2cc(/C=C/C(=O)c3ccc(N)cc3)[nH]n2)cc1
[1]
  growth at 0.01 µM: 92%
[2]
  growth at 1 µM: 61%
[3]
  growth at 100 µM: -78%
[33]
  growth at 0.1 µM: 99%
[4]
  growth at 1 µM: 72%
[5]
  growth at 100 µM: -70%
[6]
  GI50: 2.32 µM
  TGI: 9.48 µM
  CC50: > 100 µM
[7]
  growth at 0.01 µM: 102%
[8]
  growth at 100 µM: -51%
[9]
  GI50: 2.8 µM
  LC50: 61.2 µM
  TGI: 7.49 µM
[10]
  growth at 100 µM: -100%
[11]
  growth at 1 µM: 90%
[12]
  growth at 100 µM: -41%
[13]
  GI50: 2.67 µM
  LC50 (concentration killing 50% of cells): 36.1 µM
  TGI: 6.54 µM
[14]
  growth at 0.1 µM: 103%
[15]
  growth at 0.01 µM: 102%
[16]
  growth at 10 µM: -6%
[17]
  growth at 0.1 µM: 105%
[18]
  growth at 100 µM: -96%
[34]
  growth at 10 µM: -2%
[19]
  GI50: 2.12 µM
  LC50: 58.1 µM
  TGI: 5.69 µM
[20]
  growth at 100 µM: -100%
[21]
  growth at 0.1 µM: 103%
[35]
  GI50: 2.86 µM
  LC50: > 100 µM
  TGI: 15.5 µM
[22]
  growth at 0.01 µM: 100%
[23]
  growth at 1 µM: 63%
[24]
  growth at 10 µM: -40%
[25]
  growth at 0.1 µM: 100%
[26]
  growth at 100 µM: -75%
[27]
  GI50: 2.07 µM
  LC50: 20.9 µM
  TGI: 4.95 µM
[28]
  growth at 10 µM: -24%
[29]
  growth at 100 µM: -35%
[36]
  growth at 1 µM: 85%
[30]
  growth at 0.1 µM: 90%
[31]
  growth at 0.1 µM: 97%
[32]
  growth at 1 µM: 92%

## COc1cc(-c2cc(/C=C/C(=O)c3ccc(F)c(F)c3)[nH]n2)cc(OC)c1OC
[1]
  growth at 0.01 µM: 95%
[2]
  growth at 1 µM: 101%
[3]
  growth at 100 µM: -48%
[33]
  growth at 0.1 µM: 98%
[4]
  growth at 1 µM: 90%
[5]
  growth at 100 µM: -54%
[6]
  TGI: 9.09 µM
  CC50: > 100 µM
[7]
  growth at 0.01 µM: 99%
[8]
  growth at 100 µM: -65%
[9]
  LC50: > 100 µM
  TGI: > 100 µM
[10]
  growth at 100 µM: -29%
[11]
  growth at 1 µM: 90%
[12]
  growth at 100 µM: -12%
[13]
  LC50 (concentration killing 50% of cells): > 100 µM
  TGI: 11.9 µM
[14]
  growth at 0.1 µM: 99%
[15]
  growth at 0.01 µM: 94%
[16]
  growth at 10 µM: 17%
[17]
  growth at 0.1 µM: 111%
[18]
  growth at 100 µM: -40%
[34]
  growth at 10 µM: -4%
[19]
  LC50: > 100 µM
  TGI: 15.7 µM
[20]
  growth at 100 µM: -88%
[21]
  growth at 0.1 µM: 91%
[35]
  LC50: > 100 µM
  TGI: 50.5 µM
[22]
  growth at 0.01 µM: 95%
[23]
  growth at 1 µM: 95%
[24]
  growth at 10 µM: 9%
[25]
  growth at 0.1 µM: 96%
[26]
  growth at 100 µM: -15%
[27]
  LC50: 80.4 µM
  TGI: 8.24 µM
[28]
  growth at 10 µM: 3%
[29]
  growth at 100 µM: -16%
[36]
  growth at 1 µM: 95%
[30]
  growth at 0.1 µM: 96%
[31]
  growth at 0.1 µM: 97%
[32]
  growth at 1 µM: 103%
